In general, EC50 refers to the concentration at which the effect is half-maximal.

The structures appear in SMILES notation.

In data set [1] the target is T1, Cytochrome P450 11B2, mitochondrial (Homo sapiens, UniProt P19099).
T1 sequence (P19099 whole entry): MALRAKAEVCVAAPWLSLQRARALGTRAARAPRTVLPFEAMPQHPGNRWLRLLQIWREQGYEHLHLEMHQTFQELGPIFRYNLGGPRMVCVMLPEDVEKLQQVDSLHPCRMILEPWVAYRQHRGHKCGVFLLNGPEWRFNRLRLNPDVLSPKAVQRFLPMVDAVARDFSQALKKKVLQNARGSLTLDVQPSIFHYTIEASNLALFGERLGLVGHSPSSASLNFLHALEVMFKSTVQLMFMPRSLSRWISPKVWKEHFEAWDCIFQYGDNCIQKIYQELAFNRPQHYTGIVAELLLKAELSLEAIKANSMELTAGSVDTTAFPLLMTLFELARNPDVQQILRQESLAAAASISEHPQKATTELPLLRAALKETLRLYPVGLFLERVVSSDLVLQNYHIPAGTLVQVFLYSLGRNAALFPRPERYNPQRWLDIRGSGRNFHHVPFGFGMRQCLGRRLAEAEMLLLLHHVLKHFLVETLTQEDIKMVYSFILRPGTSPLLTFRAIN
The data set can be described thus: Inhibition Assay. From the text: (§1) The expression plasmids contains the ORF for either human/cyno CYP11B1 or CYP11B2 under the control of a suitable promoter (CMV-promoter) and a suitable resistance marker (neomycin). Using standard techniques the expression plasmid is transfected into G-402 cells and these cells are then selected for expressing the given resistance markers. Individual cell-clones are then selected and assessed for displaying the desired enzymatic activity using 11-Deoxycorticosterone (Cyp11B2) or 11-Deoxycortisol (Cyp11B1) as a substrate.G-402 cells expressing CYP11 constructs were established as described above and maintained in McCoy's 5a Medium Modified, ATCC Catalog No. 30-2007 containing 10% FCS and 400 μg/ml G418 (Geneticin) at 37° C. under an atmosphere of 5% CO2/95% air. Cellular enzyme assays were performed in DMEM/F12 medium containing 2.5% charcoal treated FCS and appropriate concentration of substrate (0.3-10 uM 11-Deoxycorticosterone, 11-Deoxycortisol or Corticosterone). For assaying enzymatic activity, cells were plated onto 96 well plates and incubated for 16 h. An aliquot of the supernatant is then transferred and analyzed for the concentration of the expected product (Aldosterone for CYP11B2; Cortisol for CYP11B1). The concentrations of these steroids can be determined using HTRF assays from CisBio analyzing either Aldosterone or Cortisol.

The target in data set [2] is T2, Cytochrome P450 11B1, mitochondrial (Homo sapiens, UniProt P15538).
T2 sequence (P15538 whole entry): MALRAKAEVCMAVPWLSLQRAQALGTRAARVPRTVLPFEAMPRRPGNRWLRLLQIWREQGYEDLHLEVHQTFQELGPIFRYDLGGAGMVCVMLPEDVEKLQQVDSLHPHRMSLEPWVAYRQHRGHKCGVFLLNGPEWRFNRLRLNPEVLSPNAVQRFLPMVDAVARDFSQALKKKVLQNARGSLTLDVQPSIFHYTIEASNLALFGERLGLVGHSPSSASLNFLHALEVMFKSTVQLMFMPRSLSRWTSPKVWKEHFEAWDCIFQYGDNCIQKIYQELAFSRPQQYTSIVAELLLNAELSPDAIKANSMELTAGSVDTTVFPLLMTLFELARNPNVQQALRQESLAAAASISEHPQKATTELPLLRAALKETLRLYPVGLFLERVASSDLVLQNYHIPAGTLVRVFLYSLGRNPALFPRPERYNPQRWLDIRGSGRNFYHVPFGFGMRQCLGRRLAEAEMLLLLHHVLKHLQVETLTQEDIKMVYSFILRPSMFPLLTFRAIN
The data set can be described thus: Inhibition Assay.
Text: as §1

In data set [1], `CC(=O)N1CCC(C(C)c2c[nH]nc2-c2cc3c(cc2F)N(C)C(=O)CC3)CC1` (racemic) [US9796702, 35] came in with an EC50 of 5 pM.

In turn, `CC(=O)N1CCC([C@H](C)c2c[nH]nc2-c2ccc3c(c2F)CCC(=O)N3C)CC1` (single isomer, unassigned) [US9796702, 37] displayed an EC50 in data set [2] of 4580 pM. This counts as single-digit nanomolar. With `CN1C(=O)CCc2cc(-c3n[nH]cc3CC3CCN(C(=O)c4cnn(C)c4)CC3)ccc21` [US9796702, 17], in data set [1], the 50% effective concentration (EC50) was found to be 7 pM. The same measure, in the same setting: the same measure for `CCS(=O)(=O)N1CCC(Cc2c[nH]nc2-c2ccc3c(c2F)CCC(=O)N3C)CC1` [US9796702, 22]: 2 pM.

As for `CC(=O)N1CCC(C(C)c2c[nH]nc2-c2ccc3c(c2F)CCC(=O)N3C)CC1` (stereo not given) [US9796702, 36], it took 3 pM to reach a half-maximal effect in data set [1] (EC50).

The record behind these values is BindingDB's records for patent US9796702 (Hoffmann-La Roche, 2017).
